Drawing on ChEMBL document CHEMBL3997834, “Phenolic compounds isolated from Dioscorea zingiberensis protect against pancreatic acinar cells necrosis induced by sodium taurocholate” (Bioorg Med Chem Lett, 2017), this text covers Activity for nine molecules.

The subject of data set [1] is Pancreatic acinar cell. Put plainly: (§1) Cytoprotective activity against sodium taurocholate-induced necrosis in Balb/C mouse pancreatic acinar cells at 0.5 mM after 40 mins by propidium iodide/Hoechst 33342 staining-based fluorescence microscopic method. In kind it is functional.
The test system of data set [2] is Pancreatic acinar cell. Put plainly: Cytoprotective activity against sodium taurocholate-induced necrosis in Balb/C mouse pancreatic acinar cells at 5 mM after 40 mins by propidium iodide/Hoechst 33342 staining-based fluorescence microscopic method. It is filed as functional.
Data set [3] is described as follows: Cytoprotective activity against sodium taurocholate-induced necrosis in Balb/C mouse pancreatic acinar cells assessed as intracellular ATP production at 0.5 mM measured at 20 mins by luminescence assay (reference value: 39.9%). It is filed as functional, Pancreatic acinar cell.
Data set [4] in a line: Cytoprotective activity against sodium taurocholate-induced necrosis in Balb/C mouse pancreatic acinar cells assessed as decrease in intracellular reactive oxygen species generation at 0.5 mM measured for 20 mins by H2-DCFDA probe-based fluorescence assay relative to control. It is filed as functional, Pancreatic acinar cell. On the set-up: scale not given: the % may be the effect or the level left.

Data set [5] is described as follows: Cytotoxicity against Balb/C mouse pancreatic acinar cells at 1 mM after 40 mins by propidium iodide/Hoechst 33342 staining-based fluorescence microscopic method. Particulars: pancreatic acinar cell, 1000 µM.
In data set [6] the test system is Pancreatic acinar cell. Put plainly: Cytoprotective activity against sodium taurocholate-induced necrosis in Balb/C mouse pancreatic acinar cells at 1 mM after 40 mins by propidium iodide/Hoechst 33342 staining-based fluorescence microscopic method. In kind it is functional.
Data set [7] is described as follows: as §1. It is filed as functional, Pancreatic acinar cell.
The nature of data set [8]: Cytoprotective activity against sodium taurocholate-induced necrosis in Balb/C mouse pancreatic acinar cells assessed as intracellular ATP production at 0.5 mM measured at 40 mins by luminescence assay (reference value: 21.5%). It is filed as functional, Pancreatic acinar cell.

Each structure is given as a SMILES string. Active and inactive are the calls of the source. No cut-off for these calls is given here.

Regarding `COc1cc(O)cc(CCc2ccc(OC)c(O)c2)c1`, the outcome in data set [1] was inactive.
Regarding `Oc1ccc(CC[C@@H](O)C[C@H](O)CCc2ccc(O)cc2)cc1`, in data set [1], the result was Active.
For the molecule `Cn1c(=O)c2c(ncn2C)n(C)c1=O`, in data set [2], the outcome was Active.
As for `COc1ccc(CCc2cc(O)c(OC)c(O)c2)cc1`, the result in data set [1] was inactive.
Same read-out and setting: next, `COc1cc(CC[C@@H](O)C[C@H](O)CCc2ccc(O)cc2)ccc1O`: “Active”; `COc1ccc2c(c1O)-c1c(cc(O)cc1OC)CC2`: “inactive”.
For the molecule `Oc1ccc(CC[C@@H](O)C[C@H](O)CCc2ccc(O)c(O)c2)cc1`, the Activity is reported as 59.4% in data set [3]; 27.9% in data set [4]; “Toxic” in data set [5]; 19% in data set [7]; 38.3% in data set [8]. Further, the outcome in data set [6] was inactive.
Turning to `COc1c(O)cc(CCc2ccccc2)cc1O`, in data set [1], the outcome was inactive.
The same measure, in the same setting: under `COc1cc(CC[C@@H](O)C[C@H](O)CCc2ccc(O)c(OC)c2)ccc1O` stands “Active”.
